From patent US20210213104A1, “GLUCAGON AND GLP-1 CO-AGONISTS FOR THE TREATMENT OF CHRONIC KIDNEY DISEASE AND DIABETIC KIDNEY DISEASE IN TYPE 2 DIABETES” (MEDIMMUNE LIMITED, priority 2020, published 2021)

Tested on: subjects with T2DM and renal impairment
Test: Phase 2a: continuous glucose monitoring (CGM)
Type: in vivo, human
Settings: ITT; for Average CGM Glucose Over 7-Day Periods, Difference in LS Mean Change (vs Placebo) / Average CGM Glucose Over 7-Day Periods, LS Mean Change / Percentage of time CGM Glucose in Clinically Significant Hypoglycemia (<54 mg/dL), Difference in LS Mean Change (vs Placebo) / Percentage of time CGM Glucose in Clinically Significant Hypoglycemia (<54 mg/dL), LS Mean Change / Percentage of time CGM Glucose in Hyperglycemia (>180 mg/dL), Difference in LS Mean Change (vs Placebo) / Percentage of time CGM Glucose in Hyperglycemia (>180 mg/dL), LS Mean Change / Percentage of time CGM Glucose in Hypoglycemia (<70 mg/dl), Difference in LS Mean Change (vs Placebo) / Percentage of time CGM Glucose in Hypoglycemia (<70 mg/dl), LS Mean Change / Average CGM Glucose Over 7-Day Periods, Change from Baseline to End of Dosing Period, Mean / Average CGM Glucose Over 7-Day Periods, Change from Baseline to End of Dosing Period, Median / Percentage of time CGM Glucose in Hyperglycemia (>180 mg/dL), Change from Baseline to End of Dosing Period, Mean / Percentage of time CGM Glucose in Hyperglycemia (>180 mg/dL), Change from Baseline to End of Dosing Period, Median: baseline Days −8 to −2; for Average CGM Glucose Over 7-Day Periods, Difference in LS Mean Change (vs Placebo) / Average CGM Glucose Over 7-Day Periods, LS Mean Change / Percentage of time CGM Glucose in Clinically Significant Hypoglycemia (<54 mg/dL), Difference in LS Mean Change (vs Placebo) / Percentage of time CGM Glucose in Clinically Significant Hypoglycemia (<54 mg/dL), LS Mean Change / Percentage of time CGM Glucose in Hyperglycemia (>180 mg/dL), Difference in LS Mean Change (vs Placebo) / Percentage of time CGM Glucose in Hyperglycemia (>180 mg/dL), LS Mean Change / Percentage of time CGM Glucose in Hypoglycemia (<70 mg/dl), Difference in LS Mean Change (vs Placebo) / Percentage of time CGM Glucose in Hypoglycemia (<70 mg/dl), LS Mean Change / Time in target range, LS Mean Change: ANCOVA; for Time in target range, LS Mean Change: 300 μg Dose (Days 26 to 32)
Method: Cotadutide was titrated from 50 μg up to 300 μg and administered once daily by subcutaneous (SC) injection over 32 days.
Cotadutide was administered at 50 μg once daily for 4 days, followed by 100 μg daily for 7 days, 200 μg daily for 7 days, and 300 μg daily for 14 days (n=20). Placebo was administered one daily for 32 days (n=20). Cotadutide and placebo were administered in the morning. Dosing commenced following predose baseline vital signs, blood tests (including HbA1c), an electrocardiogram (ECG), body weight measurement, and bioimpedance spectroscopy (BIS). Subjects then returned for daily dosing or remained overnight locally until Day 5, and thereafter, had visits at weekly intervals until a maintenance dose of 300 μg was established. Thus, Cotadutide or placebo was administered at the study site by study personal for the first four doses and on site on Days 5, 12, 19, and 32. At all other times, subjects preformed dosing at home.
A Freestyle Libre® Pro CGM device was used to measure interstitial glucose levels. […] Data generated by CGM was used at visits to adjust insulin doses and other treatments.
The CGM sensor, which is a small plastic circular device of 35 mm diameter and 5 mm depth, was applied to the back of the upper arm. Subjects wore the CGM sensor continuously up until the time of a sensor change, which was to occur within 14 days, and they were advised that they could bathe and shower, and swim in up to 3 m depth for up to 30 minutes while wearing the CGM sensor. When the CGM sensor was removed, a new CGM sensor could be reapplied, ideally close to the original site, but with the subject's site preference taken into account. CGM sensors were single-use only.
If a subject was unable to tolerate wearing the CGM sensor for the entire duration of the study, the sensor was removed; but the subject was to remain in the study with or without continued CGM and could instead be instructed to monitor capillary plasma glucose measurements four times per day (before meals and before bedtime) and record these levels in the diary provided.
Subjects underwent continuous glucose monitoring (CGM) starting from Day −14 to Day 40 (±5 days), with sensor changes within 14-day intervals. CGM readings were used to analyze change in average CGM glucose and glucose AUC7 d, coefficient of variation as a marker of glycemic variability, and time spent in target glucose range and hypoglycemia, to enable comparison across different dose levels.

CCCCCCCCCCCCCCCC(=O)N[C@@H](CCC(=O)NCCCC[C@H](NC(=O)[C@H](CC(=O)O)NC(=O)[C@H](CO)NC(=O)[C@@H](NC(=O)[C@H](Cc1ccccc1)NC(=O)[C@@H](NC(=O)CNC(=O)[C@H](CCC(N)=O)NC(=O)[C@H](CO)NC(=O)[C@@H](N)Cc1c[nH]cn1)[C@@H](C)O)[C@@H](C)O)C(=O)N[C@@H](CO)C(=O)N[C@@H](CCC(=O)O)C(=O)N[C@@H](Cc1ccc(O)cc1)C(=O)N[C@@H](CC(C)C)C(=O)N[C@@H](CC(=O)O)C(=O)N[C@@H](CO)C(=O)N[C@@H](CCC(=O)O)C(=O)N[C@@H](CCCNC(=N)N)C(=O)N[C@@H](C)C(=O)N[C@@H](CCCNC(=N)N)C(=O)N[C@@H](CC(=O)O)C(=O)N[C@@H](Cc1ccccc1)C(=O)N[C@H](C(=O)N[C@@H](C)C(=O)N[C@@H](Cc1c[nH]c2ccccc12)C(=O)N[C@@H](CC(C)C)C(=O)N[C@@H](CCC(=O)O)C(=O)N[C@@H](C)C(=O)NCC(=O)NCC(=O)O)C(C)C)C(=O)O [Cotadutide]
Average CGM Glucose Over 7-Day Periods, End of Dosing Period, Mean (300 μg (Days 19 to 25)): 124.894 mg/dL | Average CGM Glucose Over 7-Day Periods, End of Dosing Period, Median (300 μg (Days 19 to 25)): 123.277 mg/dL | Percentage of time CGM Glucose in Hyperglycemia (>180 mg/dL), End of Dosing Period, Mean (300 μg (Days 19 to 25)): 10.65% | Percentage of time CGM Glucose in Hyperglycemia (>180 mg/dL), End of Dosing Period, Median (300 μg (Days 19 to 25)): 5.81% | Average CGM Glucose Over 7-Day Periods, Difference in LS Mean Change (vs Placebo) (300 μg (Days 19 to 25)): -48.97 mg/dL | Average CGM Glucose Over 7-Day Periods, LS Mean Change (300 μg (Days 19 to 25)): -38.75 mg/dL | Percentage of time CGM Glucose in Clinically Significant Hypoglycemia (<54 mg/dL), Difference in LS Mean Change (vs Placebo) (300 μg (Days 19 to 25)): 4.57% | Percentage of time CGM Glucose in Clinically Significant Hypoglycemia (<54 mg/dL), LS Mean Change (300 μg (Days 19 to 25)): 3.58% | Percentage of time CGM Glucose in Hyperglycemia (>180 mg/dL), Difference in LS Mean Change (vs Placebo) (300 μg (Days 19 to 25)): −23.47% | Percentage of time CGM Glucose in Hyperglycemia (>180 mg/dL), LS Mean Change (300 μg (Days 19 to 25)): −23.47% | Percentage of time CGM Glucose in Hypoglycemia (<70 mg/dl), Difference in LS Mean Change (vs Placebo) (300 μg (Days 19 to 25)): 4.25% | Percentage of time CGM Glucose in Hypoglycemia (<70 mg/dl), LS Mean Change (300 μg (Days 19 to 25)): 3.39% | Average CGM Glucose Over 7-Day Periods, Change from Baseline to End of Dosing Period, Mean (300 μg (Days 19 to 25)): -38.623 mg/dL | Average CGM Glucose Over 7-Day Periods, Change from Baseline to End of Dosing Period, Median (300 μg (Days 19 to 25)): -35.498 mg/dL | Percentage of time CGM Glucose in Hyperglycemia (>180 mg/dL), Change from Baseline to End of Dosing Period, Mean (300 μg (Days 19 to 25)): −23.50% | Percentage of time CGM Glucose in Hyperglycemia (>180 mg/dL), Change from Baseline to End of Dosing Period, Median (300 μg (Days 19 to 25)): −19.64% | Average CGM Glucose Over 7-Day Periods, End of Dosing Period, Mean (300 μg (Days 26 to 32)): 125.382 mg/dL | Average CGM Glucose Over 7-Day Periods, End of Dosing Period, Median (300 μg (Days 26 to 32)): 121.594 mg/dL | Percentage of time CGM Glucose in Hyperglycemia (>180 mg/dL), End of Dosing Period, Mean (300 μg (Days 26 to 32)): 10.00% | Percentage of time CGM Glucose in Hyperglycemia (>180 mg/dL), End of Dosing Period, Median (300 μg (Days 26 to 32)): 4.38% | Average CGM Glucose Over 7-Day Periods, Difference in LS Mean Change (vs Placebo) (300 μg (Days 26 to 32)): -47.89 mg/dL | Average CGM Glucose Over 7-Day Periods, LS Mean Change (300 μg (Days 26 to 32)): -41.37 mg/dL | Percentage of time CGM Glucose in Clinically Significant Hypoglycemia (<54 mg/dL), Difference in LS Mean Change (vs Placebo) (300 μg (Days 26 to 32)): 1.58% | Percentage of time CGM Glucose in Clinically Significant Hypoglycemia (<54 mg/dL), LS Mean Change (300 μg (Days 26 to 32)): 0.13% | Percentage of time CGM Glucose in Hyperglycemia (>180 mg/dL), Difference in LS Mean Change (vs Placebo) (300 μg (Days 26 to 32)): −18.94% | Percentage of time CGM Glucose in Hyperglycemia (>180 mg/dL), LS Mean Change (300 μg (Days 26 to 32)): −25.15% | Percentage of time CGM Glucose in Hypoglycemia (<70 mg/dl), Difference in LS Mean Change (vs Placebo) (300 μg (Days 26 to 32)): 4.91% | Percentage of time CGM Glucose in Hypoglycemia (<70 mg/dl), LS Mean Change (300 μg (Days 26 to 32)): 3.09% | Average CGM Glucose Over 7-Day Periods, Change from Baseline to End of Dosing Period, Mean (300 μg (Days 26 to 32)): -41.401 mg/dL | Average CGM Glucose Over 7-Day Periods, Change from Baseline to End of Dosing Period, Median (300 μg (Days 26 to 32)): -51.123 mg/dL | Percentage of time CGM Glucose in Hyperglycemia (>180 mg/dL), Change from Baseline to End of Dosing Period, Mean (300 μg (Days 26 to 32)): −25.49% | Percentage of time CGM Glucose in Hyperglycemia (>180 mg/dL), Change from Baseline to End of Dosing Period, Median (300 μg (Days 26 to 32)): −23.12% | Time in target range, LS Mean Change (Insulin Dose < 20 U/day): 17.13% | Time in target range, LS Mean Change (Insulin Dose ≥ 20 U/day): 10.40% | Time in target range, LS Mean Change (Total): 14.79%
